How the values were obtained:
[1] = test system: HCT 116 cells; assay: Cell growth assay (CellTiter-Glo 2.0), HCT 116 MSI-H cell line; conditions: Homo sapiens, HCT-116, 120 h, read-out: Cell Growth Inhibition GI50 HCT-116
Procedure: The effects of compound on cellular viability were determined using the CellTiter-Glo® 2.0 Luminescent Cell Viability Assay (Promega, Madison, WI).
SW480 cells were seeded at 1,000 cells per well in Eagle's Minimum Essential Medium (EMEM) with 10% FBS. Both cell lines were seeded in a volume of 50 μL medium per well. […] The concentration range was adjusted as needed for compounds of different potencies. The cells treated with compounds were incubated for 5 days at 37° C. in 5% CO2. […] The plate was then read on a Clariostar plate reader (BMG Labtech, Cary, NC) in luminescence mode. The previously measured baseline cell viability was subtracted from the luminescence value of each well, and cell viability (% of DMSO) was plotted as a function of log compound concentration. The EC50 was then calculated for each compound using Dotmatics Software (San Diego, CA).

[2] = biological target: T1, WRN C727 (Homo sapiens, UniProt Q14191); assay: Target engagement, in vitro (lysate), OCI-AML2; assay type: binding; conditions: read-out: OCI-AML2 WRN C727 TE50 in vitro (lysate)
T1 construct: endogenous in cells; host or cells: OCI-AML2
How it was run: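 Percent engagement of WRN C727 is expressed against DMSO-treated samples, measured by PRM mass spectrometry of streptavidin-enriched, probe-tagged tryptic peptides. Compound dose responses preceded probe labelling of solvent-exposed cysteines, in either living OCI-AML2 cells or their lysates.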

[3] = test system: SW480 cells; assay: Cell growth assay (CellTiter-Glo 2.0), SW480 MSS cell line; conditions: Homo sapiens, SW480, 120 h, read-out: Cell Growth Inhibition GI50 SW480
[4] = biological target: hWRN(519-1227)_C-H3CV-GFP-10His (Homo sapiens, UniProt Q14191); assay: Helicase Assay for WRN Inhibition (ATP-dependent, fluorescence based); conditions: WRN Helicase IC50, 30 min preincubation with ATP, 30 min reaction
Sequence of hWRN(519-1227)_C-H3CV-GFP-10His (Q14191 519-1227): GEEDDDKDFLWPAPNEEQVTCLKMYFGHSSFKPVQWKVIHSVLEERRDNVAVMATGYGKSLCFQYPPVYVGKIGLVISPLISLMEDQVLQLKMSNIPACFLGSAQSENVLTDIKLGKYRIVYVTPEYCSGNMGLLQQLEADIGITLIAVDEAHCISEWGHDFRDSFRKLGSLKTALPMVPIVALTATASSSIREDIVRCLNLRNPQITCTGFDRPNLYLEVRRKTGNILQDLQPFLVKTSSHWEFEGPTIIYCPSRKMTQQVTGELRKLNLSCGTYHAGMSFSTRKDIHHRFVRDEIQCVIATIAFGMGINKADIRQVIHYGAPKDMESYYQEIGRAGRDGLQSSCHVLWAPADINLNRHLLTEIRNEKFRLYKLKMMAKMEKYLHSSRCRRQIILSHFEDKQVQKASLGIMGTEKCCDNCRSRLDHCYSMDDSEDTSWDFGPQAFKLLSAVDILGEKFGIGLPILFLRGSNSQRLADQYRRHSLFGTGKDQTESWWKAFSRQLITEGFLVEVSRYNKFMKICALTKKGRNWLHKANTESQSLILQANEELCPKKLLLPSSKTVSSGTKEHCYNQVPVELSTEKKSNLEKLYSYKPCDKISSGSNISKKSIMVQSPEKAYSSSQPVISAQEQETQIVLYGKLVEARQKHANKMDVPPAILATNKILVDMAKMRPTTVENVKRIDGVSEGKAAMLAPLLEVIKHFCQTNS

T1 sequence (Q14191 whole entry): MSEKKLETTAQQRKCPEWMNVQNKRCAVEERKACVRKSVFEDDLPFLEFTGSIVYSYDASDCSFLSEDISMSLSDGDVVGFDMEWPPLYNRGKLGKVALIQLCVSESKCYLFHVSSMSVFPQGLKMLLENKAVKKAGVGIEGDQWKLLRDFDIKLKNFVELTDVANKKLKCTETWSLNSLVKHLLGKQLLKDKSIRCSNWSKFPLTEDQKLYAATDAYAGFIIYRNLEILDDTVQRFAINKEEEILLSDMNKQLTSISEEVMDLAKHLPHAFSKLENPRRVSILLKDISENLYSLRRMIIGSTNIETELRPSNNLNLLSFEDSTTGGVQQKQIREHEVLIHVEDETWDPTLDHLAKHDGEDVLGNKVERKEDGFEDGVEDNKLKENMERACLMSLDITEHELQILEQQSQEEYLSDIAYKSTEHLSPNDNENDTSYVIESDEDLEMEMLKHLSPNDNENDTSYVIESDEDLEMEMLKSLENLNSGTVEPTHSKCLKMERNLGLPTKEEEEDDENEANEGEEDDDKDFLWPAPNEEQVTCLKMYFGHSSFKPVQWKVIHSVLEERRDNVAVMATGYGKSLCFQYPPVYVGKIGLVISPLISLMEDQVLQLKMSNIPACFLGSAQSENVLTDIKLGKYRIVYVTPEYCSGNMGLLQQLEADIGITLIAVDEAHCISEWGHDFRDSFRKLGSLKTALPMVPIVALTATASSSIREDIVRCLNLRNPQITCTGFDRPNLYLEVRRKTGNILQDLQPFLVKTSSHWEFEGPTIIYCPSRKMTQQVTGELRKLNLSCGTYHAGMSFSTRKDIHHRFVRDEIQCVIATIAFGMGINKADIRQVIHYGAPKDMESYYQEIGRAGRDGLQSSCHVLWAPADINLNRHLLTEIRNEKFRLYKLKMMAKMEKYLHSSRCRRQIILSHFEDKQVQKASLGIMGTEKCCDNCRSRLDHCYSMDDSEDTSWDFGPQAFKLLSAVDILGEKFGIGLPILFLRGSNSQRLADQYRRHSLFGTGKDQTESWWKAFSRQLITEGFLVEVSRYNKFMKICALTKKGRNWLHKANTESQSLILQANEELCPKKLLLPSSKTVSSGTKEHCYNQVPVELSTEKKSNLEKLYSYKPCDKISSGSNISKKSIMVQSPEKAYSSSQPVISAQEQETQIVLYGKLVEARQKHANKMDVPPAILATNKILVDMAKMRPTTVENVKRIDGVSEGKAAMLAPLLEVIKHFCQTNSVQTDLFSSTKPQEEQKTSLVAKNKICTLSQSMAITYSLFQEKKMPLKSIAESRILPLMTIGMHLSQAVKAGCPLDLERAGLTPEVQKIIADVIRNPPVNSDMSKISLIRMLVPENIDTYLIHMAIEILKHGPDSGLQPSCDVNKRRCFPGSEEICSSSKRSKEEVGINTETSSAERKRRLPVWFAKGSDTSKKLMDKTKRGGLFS

Compound: CC(C)(C)c1ncc(C(=O)N[C@H](/C=C/S(C)(=O)=O)C2CCC(F)(F)CC2)c(Oc2ccccc2)n1 [Example 72, (S,E)-2-(tert-butyl)-N-(1-(4,4-difluorocyclohexyl)-3-(methylsulfonyl)allyl)-4-phenoxypyrimidine-5-carboxamide]
- GI50 [1]: 0.0467 µM
- IC50 [2]: 0.6 µM
- GI50 [3]: 45.2 µM
- IC50 [4]: 0.16 µM

Compound: CC(C)(C)c1ncc(C(=O)N[C@H](/C=C/S(C)(=O)=O)CC(F)F)c(Oc2ccccc2)n1 [Example 73, (S,E)-2-(tert-butyl)-N-(5,5-difluoro-1-(methylsulfonyl)pent-1-en-3-yl)-4-phenoxypyrimidine-5-carboxamide]
- GI50 [1]: 0.3 µM
- IC50 [2]: 0.47 µM
- GI50 [3]: 16 µM
- IC50 [4]: 0.15 µM

Compound: CS(=O)(=O)/C=C/CNC(=O)c1cnc(C2CCCCC2)nc1Oc1ccccc1 [Example 76, (E)-2-cyclohexyl-N-(3-(methylsulfonyl)allyl)-4-phenoxypyrimidine-5-carboxamide]
- GI50 [1]: 3.4 µM
- IC50 [2]: 50 µM
- GI50 [3]: > 10 µM
- IC50 [4]: 4.9 µM

Compound: C[C@@H](/C=C/S(C)(=O)=O)NC(=O)c1cnc(C2CCCO2)nc1Oc1ccccc1 (stereo partly drawn) [Example 78, N—((S,E)-4-(methylsulfonyl)but-3-en-2-yl)-4-phenoxy-2-(tetrahydrofuran-2-yl)pyrimidine-5-carboxamide]
- GI50 [1]: 2.6 µM
- IC50 [2]: 50 µM
- GI50 [3]: > 10 µM
- IC50 [4]: 9.33 µM

Compound: CS(=O)(=O)/C=C/[C@@H](NC(=O)c1cnc(C(F)(F)F)nc1Oc1ccccc1)C1CC1 [Example 82, (S,E)-N-(1-cyclopropyl-3-(methylsulfonyl)allyl)-4-phenoxy-2-(trifluoromethyl)pyrimidine-5-carboxamide]
- GI50 [1]: 0.28 µM
- IC50 [2]: 0.7 µM
- GI50 [3]: 20 µM
- IC50 [4]: 0.55 µM

Compound: C[C@@H](/C=C/S(C)(=O)=O)NC(=O)c1cnc(C(F)(F)C(F)(F)F)nc1Oc1ccccc1 [Example 83, (S,E)-N-(4-(methylsulfonyl)but-3-en-2-yl)-2-(perfluoroethyl)-4-phenoxypyrimidine-5-carboxamide]
- GI50 [1]: 0.202 µM
- IC50 [2]: 0.38 µM
- GI50 [3]: 19.1 µM
- IC50 [4]: 0.238 µM

Compound: COC[C@@H](/C=C/S(C)(=O)=O)NC(=O)c1cnc(C(F)(F)C(F)(F)F)nc1Oc1ccccc1 [Example 85, (R,E)-N-(1-methoxy-4-(methylsulfonyl)but-3-en-2-yl)-2-(perfluoroethyl)-4-phenoxypyrimidine-5-carboxamide]
- GI50 [1]: 0.0484 µM
- IC50 [2]: 0.22 µM
- GI50 [3]: 11.5 µM
- IC50 [4]: 0.12 µM

Compound: CN(C)C(=O)C[C@@H](/C=C/S(C)(=O)=O)NC(=O)c1cnc(C(C)(F)F)nc1Oc1ccccc1 [Example 92, (S,E)-2-(1,1-difluoroethyl)-N-(5-(dimethylamino)-1-(methylsulfonyl)-5-oxopent-1-en-3-yl)-4-phenoxypyrimidine-5-carboxamide]
- GI50 [1]: 0.245 µM
- IC50 [2]: 10 µM
- GI50 [3]: 43 µM
- IC50 [4]: 1.1 µM

Compound: CO[C@@H](C)[C@@H](/C=C/S(C)(=O)=O)NC(=O)c1cnc(C(C)(F)F)nc1Oc1ccccc1 [Example 93, 2-(1,1-difluoroethyl)-N-((3R,4S,E)-4-methoxy-1-(methylsulfonyl)pent-1-en-3-yl)-4-phenoxypyrimidine-5-carboxamide]
- GI50 [1]: 0.128 µM
- IC50 [2]: 4.19 µM
- GI50 [3]: 87.5 µM
- IC50 [4]: 0.46 µM

Compound: CC(C)(C)OC[C@@H](/C=C/S(C)(=O)=O)NC(=O)c1cnc(C(C)(F)F)nc1Oc1ccccc1 [Example 96, (R,E)-N-(1-(tert-butoxy)-4-(methylsulfonyl)but-3-en-2-yl)-2-(1,1-difluoroethyl)-4-phenoxypyrimidine-5-carboxamide]
- GI50 [1]: 0.0369 µM
- IC50 [2]: 0.4 µM
- GI50 [3]: 27.5 µM
- IC50 [4]: 0.2 µM

Compound: C[C@@H](/C=C/S(C)(=O)=O)NC(=O)c1cnc(C2(F)CC2)nc1Oc1ccccc1 [Example 99, (S,E)-2-(1-fluorocyclopropyl)-N-(4-(methylsulfonyl)but-3-en-2-yl)-4-phenoxypyrimidine-5-carboxamide]
- GI50 [1]: 0.74 µM
- IC50 [2]: 10 µM
- GI50 [3]: 40 µM
- IC50 [4]: 2 µM

Compound: C[C@@H](/C=C/S(C)(=O)=O)NC(=O)c1cnc(C2(C(F)(F)F)CC2)nc1Oc1ccccc1 [Example 101, (S,E)-N-(4-(methylsulfonyl)but-3-en-2-yl)-4-phenoxy-2-(1-(trifluoromethyl)cyclopropyl)pyrimidine-5-carboxamide]
- GI50 [1]: 0.374 µM
- IC50 [2]: 6.03 µM
- GI50 [3]: 7.86 µM
- IC50 [4]: 1.1 µM

Compound: C[C@@H](/C=C/S(C)(=O)=O)NC(=O)c1cnc(C2CC(F)(F)C2)nc1Oc1ccccc1 [Example 103, (S,E)-2-(3,3-difluorocyclobutyl)-N-(4-(methylsulfonyl)but-3-en-2-yl)-4-phenoxypyrimidine-5-carboxamide]
- GI50 [1]: 0.359 µM
- IC50 [2]: 3.43 µM
- GI50 [3]: 20.4 µM
- IC50 [4]: 1.5 µM

Compound: CS(=O)(=O)/C=C/CNC(=O)c1cnc(C2CCCC2)nc1Oc1ccc(F)cc1 [Example 112, (E)-2-cyclopentyl-4-(4-fluorophenoxy)-N-(3-(methylsulfonyl)allyl)pyrimidine-5-carboxamide]
- GI50 [1]: 4.8 µM
- IC50 [2]: 7.43 µM
- GI50 [3]: > 10 µM
- IC50 [4]: 4.6 µM

Compound: C[C@@H](/C=C/S(C)(=O)=O)NC(=O)c1cnc(C2CCCC2)nc1Oc1ccc(F)cc1 [Example 113, (S,E)-2-cyclopentyl-4-(4-fluorophenoxy)-N-(4-(methylsulfonyl)but-3-en-2-yl)pyrimidine-5-carboxamide]
- GI50 [1]: 1.1 µM
- IC50 [2]: 2.33 µM
- GI50 [3]: 6.2 µM
- IC50 [4]: 1.8 µM

Compound: C[C@@H](/C=C/S(C)(=O)=O)NC(=O)c1cnc(C2CCCC2)nc1Oc1ccccc1F [Example 115, (S,E)-2-cyclopentyl-4-(2-fluorophenoxy)-N-(4-(methylsulfonyl)but-3-en-2-yl)pyrimidine-5-carboxamide]
- GI50 [1]: 2.1 µM
- IC50 [2]: 30.1 µM
- GI50 [3]: > 10 µM
- IC50 [4]: 2.9 µM

Compound: CS(=O)(=O)/C=C/CNC(=O)c1cnc(C2CCCC2)nc1Oc1cccc(Cl)c1 [Example 117, (E)-4-(3-chlorophenoxy)-2-cyclopentyl-N-(3-(methylsulfonyl)allyl)pyrimidine-5-carboxamide]
- GI50 [1]: 6 µM
- IC50 [2]: > 100 µM
- GI50 [3]: 7.4 µM
- IC50 [4]: 6.7 µM

Compound: C[C@@H](/C=C/S(C)(=O)=O)NC(=O)c1cnc(C2CCCC2)nc1Oc1ccc(C#N)cc1 [Example 124, (S,E)-4-(4-cyanophenoxy)-2-cyclopentyl-N-(4-(methylsulfonyl)but-3-en-2-yl)pyrimidine-5-carboxamide]
- GI50 [1]: > 10 µM
- IC50 [2]: 6.92 µM
- GI50 [3]: > 10 µM
- IC50 [4]: 14 µM

Compound: C[C@@H](/C=C/S(C)(=O)=O)NC(=O)c1cnc(C2CCCC2)nc1Oc1cccnc1 [Example 125, (S,E)-2-cyclopentyl-N-(4-(methylsulfonyl)but-3-en-2-yl)-4-(pyridin-3-yloxy)pyrimidine-5-carboxamide]
- GI50 [1]: 3.1 µM
- IC50 [2]: 52.2 µM
- GI50 [3]: > 10 µM
- IC50 [4]: 12.5 µM

Compound: C[C@@H](/C=C/S(C)(=O)=O)NC(=O)c1cnc(C2CCCC2)nc1OC1CCC1 [Example 127, (S,E)-4-cyclobutoxy-2-cyclopentyl-N-(4-(methylsulfonyl)but-3-en-2-yl)pyrimidine-5-carboxamide]
- GI50 [1]: 1.3 µM
- IC50 [2]: 7.28 µM
- GI50 [3]: 5.3 µM
- IC50 [4]: 4.27 µM

Source: patent publication US20250188040A1, “PHARMACEUTICAL COMPOSITIONS COMPRISING WRN HELICASE INHIBITORS” (Vividion Therapeutics, Inc., priority 2022, published 2025)
